Legend:
Capivasertib = compound: C1CN(CCC1(C(=O)N[C@@H](CCO)C2=CC=C(C=C2)Cl)N)C3=NC=NC4=C3C=CN4 [Capivasertib]; conditions: max 10 µM
How it was run: (§1)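 Plates with 1536 wells received cancer cell lines in 7.5 μl of DMEM/F12 or RPMI containing 10% FBS. After 24 hours at 37°C and 5% CO2, cells were dosed for 72 hours with final DMSO typically 0.2%, and viability was read by CellTiter-Glo 2.0 luminescence scaled between blank-well and DMSO-well means. The single-agent IC50 was taken from a logistic fit of the dose responses made with a non-linear mixed effects model, that logistic curve having two parameters.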

AZD1775 = compound: C=CCn1c(=O)c2cnc(Nc3ccc(N4CCN(C)CC4)cc3)nc2n1-c1cccc(C(C)(C)O)n1 [AZD1775]; conditions: max 3 µM
How it was run: as §1

Trametinib = compound: CC(=O)Nc1cccc(-n2c(=O)n(C3CC3)c(=O)c3c(Nc4ccc(I)cc4F)n(C)c(=O)c(C)c32)c1 [Trametinib]; conditions: max 1 µM
How it was run: as §1

Palbociclib = compound: CC(=O)c1c(C)c2cnc(Nc3ccc(N4CCNCC4)cn3)nc2n(C2CCCC2)c1=O [Palbociclib]; conditions: max 10 µM
How it was run: as §1

AZD1390 = compound: CC(C)n1c(=O)n(C)c2cnc3cc(F)c(-c4ccc(OCCCN5CCCCC5)nc4)cc3c21 [AZD1390]; conditions: max 0.3 µM
How it was run: as §1

Venetoclax = compound: CC1(C)CCC(CN2CCN(c3ccc(C(=O)NS(=O)(=O)c4ccc(NCC5CCOCC5)c([N+](=O)[O-])c4)c(Oc4cnc5[nH]ccc5c4)c3)CC2)=C(c2ccc(Cl)cc2)C1 [Venetoclax]; conditions: max 1 µM
How it was run: as §1

Dasatinib = compound: CC1=C(C(=CC=C1)Cl)NC(=O)C2=CN=C(S2)NC3=CC(=NC(=N3)C)N4CCN(CC4)CCO [Dasatinib]; conditions: max 2 µM
How it was run: as §1

SG3199 = compound: CC1=CN2[C@@H](C1)C=NC3=CC(=C(C=C3C2=O)OC)OCCCCCOC4=C(C=C5C(=C4)N=C[C@@H]6CC(=CN6C5=O)C)OC [SG3199]; conditions: max 0.001 µM
How it was run: as §1

AZD2811 = compound: CCN(CCO)CCCOc1ccc2c(Nc3cc(CC(=O)Nc4cccc(F)c4)[nH]n3)ncnc2c1 [AZD2811]; conditions: max 1 µM
How it was run: as §1

SN-38 = compound: CCc1c2c(nc3ccc(O)cc13)-c1cc3c(c(=O)n1C2)COC(=O)[C@]3(O)CC [SN-38]; conditions: max 0.3 µM
How it was run: as §1

AZD0156 = compound: CN(C)CCCOc1ccc(-c2ccc3ncc4c(c3c2)n(C2CCOCC2)c(=O)n4C)cn1 [AZD0156]; conditions: max 3 µM
How it was run: as §1

AZD4320 = compound: CN(CC[C@H](CSC1=CC=CC=C1)NC2=C(C=C(C=C2)S(=O)(=O)NC(=O)C3=CC=C(C=C3)N4CCC(CC4)[C@H](C5=CC=CC=C5C6=CC=C(C=C6)Cl)O)S(=O)(=O)C(F)(F)F)CCO [AZD4320]; conditions: max 1 µM
How it was run: as §1

Alisertib = compound: COc1cc(Nc2ncc3c(n2)-c2ccc(Cl)cc2C(c2c(F)cccc2OC)=NC3)ccc1C(=O)O [Alisertib]; conditions: max 10 µM
How it was run: as §1

Gefitinib = compound: COc1cc2ncnc(Nc3ccc(F)c(Cl)c3)c2cc1OCCCN1CCOCC1 [Gefitinib]; conditions: max 10 µM
How it was run: as §1

Prexasertib = compound: COc1cccc(OCCCN)c1-c1cc(Nc2cnc(C#N)cn2)n[nH]1 [Prexasertib]; conditions: max 1 µM
How it was run: as §1

Doxorubicin = compound: COc1cccc2c1C(=O)c1c(O)c3c(c(O)c1C2=O)C[C@@](O)(C(=O)CO)C[C@@H]3O[C@H]1C[C@H](N)[C@H](O)[C@H](C)O1 [Doxorubicin]; conditions: max 1 µM
How it was run: as §1

AZD5153 = compound: COc1nnc2ccc(N3CCC(c4ccc(OCCN5CCN(C)C(=O)[C@H]5C)cc4)CC3)nn12 [AZD5153]; conditions: max 1 µM
How it was run: as §1

Lapatinib = compound: CS(=O)(=O)CCNCc1ccc(-c2ccc3ncnc(Nc4ccc(OCc5cccc(F)c5)c(Cl)c4)c3c2)o1 [Lapatinib]; conditions: max 10 µM
How it was run: as §1

AZD8186 = compound: C[C@@H](Nc1cc(F)cc(F)c1)c1cc(C(=O)N(C)C)cc2c(=O)cc(N3CCOCC3)oc12 [AZD8186]; conditions: max 3 µM
How it was run: as §1

Crizotinib = compound: C[C@@H](Oc1cc(-c2cnn(C3CCNCC3)c2)cnc1N)c1c(Cl)ccc(F)c1Cl [Crizotinib]; conditions: max 10 µM
How it was run: as §1

Savolitinib = compound: C[C@@H](c1ccc2nccn2c1)n1nnc2ncc(-c3cnn(C)c3)nc21 [Savolitinib]; conditions: max 1 µM
How it was run: as §1

AZD6738 = compound: C[C@@H]1COCCN1C2=NC(=NC(=C2)C3(CC3)[S@](=N)(=O)C)C4=C5C=CNC5=NC=C4 [AZD6738]; conditions: max 10 µM
How it was run: as §1

AZD5991 = compound: Cc1c2c(nn1C)CSCc1cc(n(C)n1)CSc1cc(c3ccccc3c1)OCCCc1c(C(=O)O)n(C)c3c-2c(Cl)ccc13 [AZD5991]; conditions: max 1 µM
How it was run: as §1

AZD7648 = compound: Cc1cc2ncnn2cc1Nc1ncc2c(n1)n(C1CCOCC1)c(=O)n2C [AZD7648]; conditions: max 10 µM
How it was run: as §1

Taselisib = compound: Cc1nc(-c2cn3c(n2)-c2ccc(-c4cnn(C(C)(C)C(N)=O)c4)cc2OCC3)n(C(C)C)n1 [Taselisib]; conditions: max 10 µM
How it was run: as §1

Selumetinib = compound: Cn1cnc2c(F)c(Nc3ccc(Br)cc3Cl)c(C(=O)NOCCO)cc21 [Selumetinib]; conditions: max 10 µM
How it was run: as §1

Olaparib = compound: O=C(c1cc(Cc2n[nH]c(=O)c3ccccc23)ccc1F)N1CCN(C(=O)C2CC2)CC1 [Olaparib]; conditions: max 10 µM
How it was run: as §1

MK-2206 = compound: NC1(c2ccc(-c3nc4ccn5c(=O)[nH]nc5c4cc3-c3ccccc3)cc2)CCC1 [MK-2206]; conditions: max 10 µM
How it was run: as §1

Cell Line | IC50, cell viability 72 h (Capivasertib) | IC50, cell viability 72 h (AZD1775) | IC50, cell viability 72 h (Trametinib) | IC50, cell viability 72 h (Palbociclib) | IC50, cell viability 72 h (AZD1390) | IC50, cell viability 72 h (Venetoclax) | IC50, cell viability 72 h (Dasatinib) | IC50, cell viability 72 h (SG3199) | IC50, cell viability 72 h (AZD2811) | IC50, cell viability 72 h (SN-38) | IC50, cell viability 72 h (AZD0156) | IC50, cell viability 72 h (AZD4320) | IC50, cell viability 72 h (Alisertib) | IC50, cell viability 72 h (Gefitinib) | IC50, cell viability 72 h (Prexasertib) | IC50, cell viability 72 h (Doxorubicin) | IC50, cell viability 72 h (AZD5153) | IC50, cell viability 72 h (Lapatinib) | IC50, cell viability 72 h (AZD8186) | IC50, cell viability 72 h (Crizotinib) | IC50, cell viability 72 h (Savolitinib) | IC50, cell viability 72 h (AZD6738) | IC50, cell viability 72 h (AZD5991) | IC50, cell viability 72 h (AZD7648) | IC50, cell viability 72 h (Taselisib) | IC50, cell viability 72 h (Selumetinib) | IC50, cell viability 72 h (Olaparib) | IC50, cell viability 72 h (MK-2206)
LB996-RCC (Kidney Carcinoma) | 5.32 µM | 0.403 µM | > 1 µM | > 10 µM | > 0.3 µM | > 1 µM | 0.188 µM | > 0.001 µM | > 1 µM | 0.00864 µM | > 3 µM | > 1 µM | 4.59 µM | > 10 µM | 0.167 µM | 0.625 µM | > 1 µM | > 10 µM | > 3 µM | > 10 µM | > 1 µM | 9.94 µM | > 1 µM | > 10 µM | 1.74 µM | > 10 µM | > 10 µM | 
SU-DHL-10 (B-Cell Non-Hodgkin's Lymphoma) | 0.505 µM | 0.586 µM | > 1 µM | 0.435 µM | > 0.3 µM | > 1 µM | 0.0628 µM | > 0.001 µM | 0.0292 µM | 0.013 µM | > 3 µM | > 1 µM | 0.684 µM | 7.02 µM | 0.0272 µM | 0.442 µM | 0.0095 µM | 4.97 µM | 1.08 µM | 2.48 µM | > 1 µM | 2.62 µM | 0.0255 µM | > 10 µM | 1.34 µM | > 10 µM | > 10 µM | 
GP5d (Colorectal Carcinoma) | 1.5 µM | 0.542 µM | 0.0174 µM | > 10 µM | > 0.3 µM | > 1 µM | > 2 µM | > 0.001 µM | 0.764 µM | 0.073 µM | > 3 µM | > 1 µM | 5.02 µM | > 10 µM | 0.0233 µM | 0.552 µM | 0.168 µM | > 10 µM | > 3 µM | 6.99 µM | > 1 µM | 3.64 µM | 0.329 µM | > 10 µM | 0.254 µM | 0.34 µM | > 10 µM | 
NCI-H23 (Lung Adenocarcinoma) | > 10 µM | 0.381 µM | 0.348 µM | > 10 µM | > 0.3 µM | > 1 µM | > 2 µM | > 0.001 µM | > 1 µM | 0.102 µM | > 3 µM | > 1 µM | 9.99 µM | > 10 µM | 0.0596 µM | > 1 µM | 0.208 µM | > 10 µM | > 3 µM | 5.95 µM | > 1 µM | 3.27 µM | 0.319 µM | > 10 µM | > 10 µM | > 10 µM | > 10 µM | > 10 µM
HEC-1 (Endometrial Carcinoma) | > 10 µM | 1.81 µM | > 1 µM | > 10 µM | > 0.3 µM | > 1 µM | > 2 µM | > 0.001 µM | > 1 µM | > 0.3 µM | > 3 µM | > 1 µM | > 10 µM | > 10 µM | 0.493 µM | > 1 µM | 0.881 µM | > 10 µM | > 3 µM | > 10 µM | > 1 µM | > 10 µM | > 1 µM | > 10 µM | > 10 µM | > 10 µM | > 10 µM | 
WM278 (Melanoma) | > 10 µM | > 3 µM | 0.0858 µM | > 10 µM | > 0.3 µM | > 1 µM | > 2 µM | > 0.001 µM | > 1 µM | 0.2 µM | > 3 µM | > 1 µM | > 10 µM | > 10 µM | 0.413 µM | > 1 µM | > 1 µM | > 10 µM | > 3 µM | > 10 µM | > 1 µM | > 10 µM | > 1 µM | > 10 µM | > 10 µM | 3.57 µM | > 10 µM | 
23132-87 (Gastric Carcinoma) | > 10 µM | 0.375 µM | > 1 µM | > 10 µM | > 0.3 µM | > 1 µM | > 2 µM | > 0.001 µM | > 1 µM | 0.0221 µM | > 3 µM | > 1 µM | > 10 µM | > 10 µM | 0.0326 µM | 0.369 µM | > 1 µM | > 10 µM | > 3 µM | > 10 µM | > 1 µM | 4.79 µM | 0.348 µM | > 10 µM | > 10 µM | > 10 µM | > 10 µM | 
RERF-GC-1B (Gastric Carcinoma) | > 10 µM | 0.401 µM | 0.462 µM | > 10 µM | > 0.3 µM | > 1 µM | 0.0282 µM | > 0.001 µM | > 1 µM | 0.0609 µM | > 3 µM | > 1 µM | 3.28 µM | > 10 µM | 0.717 µM | 0.525 µM | 0.587 µM | > 10 µM | > 3 µM | 7.14 µM | > 1 µM | > 10 µM | 0.159 µM | > 10 µM | 1.65 µM | > 10 µM | > 10 µM | > 10 µM

From the supplement of paper PMC11061612
